Experiment [1] has as its target T1, human Gcg receptor (Homo sapiens, UniProt P47871).
T1 construct: expressed in transfected cells; crude membranes
The experiment in a line: [125I]-Glucagon binding (SPA), human Gcg receptor. Particulars: read-out: hGLcgR Ki, nM (SEM, n). The procedure: (§1) Two methods are used for the preparation of crude cell membranes.
(§2) Method 1: Frozen cell pellets are lysed on ice in hypotonic buffer containing 50 mM Tris HCl, pH 7.5, and Roche Complete™ Protease Inhibitors with EDTA. The cell suspension is disrupted using a glass Potter-Elvehjem homogenizer fitted with a Teflon® pestle for 25 strokes. The homogenate is centrifuged at 4° C. at 1100×g for 10 minutes. The supernatant is collected and stored on ice while the pellets are resuspended in homogenization buffer and rehomogenized as described above. The homogenate is centrifuged at 1100×g for 10 minutes. The second supernatant is combined with the first supernatant and centrifuged at 35000×g for 1 hour at 4° C. The resulting membrane pellet is resuspended in homogenization buffer containing protease inhibitors at approximately 1 to 3 mg/mL, quick frozen in liquid nitrogen and stored as aliquots in a−80° C. freezer until use.
(§3) Method 2: Frozen cell pellets are lysed on ice in hypotonic buffer containing 50 mM Tris HCl, pH 7.5, 1 mM MgCl2, Roche Complete™ EDTA-free Protease Inhibitors and 25 units/ml DNAse I (Invitrogen). The cell suspension is disrupted using a glass Potter-Elvehjem homogenizer fitted with a Teflon® pestle for 20 to 25 strokes. The homogenate is centrifuged at 4° C. at 1800×g for 15 minutes. The supernatant is collected and stored on ice while the pellets are resuspended in homogenization buffer (without DNAse I) and rehomogenized as described above. The homogenate is centrifuged at 1800×g for 15 minutes. The second supernatant is combined with the first supernatant and centrifuged an additional time at 1800×g for 15 minutes. The overall supernatant is then centrifuged at 25000×g for 30 minutes at 4° C. The resulting membrane pellet is resuspended in homogenization buffer (without DNAse I) containing protease inhibitors at approximately 1 to 3 mg/mL and stored as aliquots in a−80° C. freezer until use.
The human Gcg receptor binding assays are performed using a Scintillation Proximity Assay (SPA) format with wheat germ agglutinin (WGA) beads (Perkin Elmer). The binding buffer contains 25 mM 4-(2-hydroxyethyl)-1-piperazineethanesulfonic acid (HEPES), pH 7.4, 2.5 mM CaCl2, 1 mM MgCl2, 0.1% (w/v) bacitracin (Research Products), 0.003% (w/v) Polyoxyethylenesorbitan monolaurate (TWEEN©-20), and Roche Complete™ Protease Inhibitors without EDTA. […] Plates are sealed and mixed on a plate shaker (setting 6) for 1 minute and read with a PerkinElmer Trilux MicroBeta© scintillation counter after 12 hours of incubation/settling time at room temperature.
(§4) Data are analyzed using four-parameter (curve maximum, curve minimum, IC50, Hill slope) nonlinear regression routines (Genedata Screener, version 12.0.4, Genedata AG, Basal, Switzerland). […] Values for Ki are reported as the geometric mean, with error expressed as the standard error of the mean (SEM) and n is equal to the number of independent replicates (determined in assays performed on different days). […] The Ki Ratio is a rapid indication of the apparent affinity of a peptide compared to the native control peptide. […] SEM is only calculated when n=2 or greater non-qualified results exist. Means are expressed as GeoMetric means with the standard error of the mean (SEM) and the number of replicates (n) indicated in parenthesis.

Experiment [2] concerns the target T2, human GIP receptor (Homo sapiens, UniProt P48546).
T2 construct: expressed in transfected cells; crude membranes
T2 sequence (P48546 22-466): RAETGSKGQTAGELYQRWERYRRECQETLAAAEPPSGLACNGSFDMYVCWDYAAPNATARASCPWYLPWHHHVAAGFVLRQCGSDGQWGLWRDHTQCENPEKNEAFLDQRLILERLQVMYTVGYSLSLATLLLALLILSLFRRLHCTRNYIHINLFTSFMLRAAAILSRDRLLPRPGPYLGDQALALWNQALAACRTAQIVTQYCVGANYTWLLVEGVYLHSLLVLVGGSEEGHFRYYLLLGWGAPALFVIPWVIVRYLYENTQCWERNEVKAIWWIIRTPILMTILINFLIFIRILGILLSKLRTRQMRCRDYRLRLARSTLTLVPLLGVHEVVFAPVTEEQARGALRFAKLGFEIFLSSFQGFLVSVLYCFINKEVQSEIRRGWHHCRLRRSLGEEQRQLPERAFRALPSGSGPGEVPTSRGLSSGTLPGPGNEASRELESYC
The experiment is described as follows: [125I]-GIP binding (SPA), human GIP receptor. Particulars: read-out: hGIPR Ki, nM (SEM, n). The procedure:
as §1, §2, §3
The binding buffer contains 25 mM HEPES, pH 7.4, 2.5 mM CaCl2, 1 mM MgCl2, 0.1% (w/v) bacitracin, 0.003% (w/v) TWEEN©-20, and Roche Complete™ Protease Inhibitors without EDTA. Peptides and GIP are thawed and 3 fold serially diluted in 100% DMSO (10 point concentration response curves). […] Plates are sealed and mixed on a plate shaker (setting 6) for 1 minute and read with a PerkinElmer Trilux MicroBeta© scintillation counter after 2.5 to 12 hours of incubation/settling time at room temperature.
as §4

Experiment [3] addresses human GLP-1 receptor (GLP-1R) (Homo sapiens, UniProt P43220). The experiment in a line: cAMP pharmacological functional assay in presence of casein, hGLP-1R. The experiment is classed as cell-based. Conditions: HEK293 cells expressing hGLP-1R, 0.1% Casein, geometric mean; read-out: hGLP1R cAMP Rel EC50 nM (SEM, n).
Experiment [4] concerns the target T3, gastric inhibitory peptide receptor (GIPR) (Homo sapiens, UniProt P48546).
T3 sequence (P48546 22-466): T2 sequence (P48546 22-466)
The experiment in a line: cAMP pharmacological functional assay in presence of casein, hGIPR. The experiment is classed as cell-based. Conditions: HEK293 cells expressing hGIPR, 0.1% Casein, geometric mean; read-out: hGIPR cAMP Rel EC50 nM (SEM, n).

In experiment [5] the target is human GLP-1R (Homo sapiens, UniProt P43220). The experiment is described as follows: [125I]-GLP-1 binding (SPA), human GLP-1 receptor. On the set-up: expressed in transfected cells; crude membranes. Conditions: read-out: hGLP1R Ki, (nM) (SEM, n). The procedure:
as §1, §2, §3
The binding buffer contains 25 mM HEPES, pH 7.4, 2.5 mM CaCl2, 1 mM MgCl2, 0.1% (w/v) bacitracin, 0.003% (w/v) TWEEN©-20, and Roche Complete™ Protease Inhibitors without EDTA.
as §4

The structures appear in SMILES notation. Numbered stars: 1 amine (or outer) side, 2 acyl side, 3 side chain; on linkers, the order of the positions; unused ones are H or OH. Square brackets hold non-standard residues; d marks the D form. Side chains are listed from the residue outwards. Peptide text beside a SMILES is read from it. * marks the point of attachment. C20 diacid = O=C(O)CCCCCCCCCCCCCCCCCCC(=O)*; γGlu = O=C(O)[C@H](CCC(=O)[*:2])N[*:1]; AEEA = NCCOCCOCC(=O)O; Aib = CC(C)(N)C(=O)O

T1 sequence (P47871 26-477): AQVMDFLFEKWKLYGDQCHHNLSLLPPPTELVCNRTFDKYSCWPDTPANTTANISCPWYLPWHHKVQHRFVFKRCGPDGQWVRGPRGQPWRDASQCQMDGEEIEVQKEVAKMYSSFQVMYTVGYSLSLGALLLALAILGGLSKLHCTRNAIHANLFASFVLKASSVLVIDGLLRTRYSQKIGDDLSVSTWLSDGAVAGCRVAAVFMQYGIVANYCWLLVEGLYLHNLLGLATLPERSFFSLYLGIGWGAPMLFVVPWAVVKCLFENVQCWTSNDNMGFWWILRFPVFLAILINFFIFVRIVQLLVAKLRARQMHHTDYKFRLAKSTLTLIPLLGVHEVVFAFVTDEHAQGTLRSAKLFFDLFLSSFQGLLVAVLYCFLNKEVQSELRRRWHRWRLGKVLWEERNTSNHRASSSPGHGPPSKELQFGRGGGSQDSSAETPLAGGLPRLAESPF
human GLP-1 receptor (GLP-1R), sequence (P43220 24-463): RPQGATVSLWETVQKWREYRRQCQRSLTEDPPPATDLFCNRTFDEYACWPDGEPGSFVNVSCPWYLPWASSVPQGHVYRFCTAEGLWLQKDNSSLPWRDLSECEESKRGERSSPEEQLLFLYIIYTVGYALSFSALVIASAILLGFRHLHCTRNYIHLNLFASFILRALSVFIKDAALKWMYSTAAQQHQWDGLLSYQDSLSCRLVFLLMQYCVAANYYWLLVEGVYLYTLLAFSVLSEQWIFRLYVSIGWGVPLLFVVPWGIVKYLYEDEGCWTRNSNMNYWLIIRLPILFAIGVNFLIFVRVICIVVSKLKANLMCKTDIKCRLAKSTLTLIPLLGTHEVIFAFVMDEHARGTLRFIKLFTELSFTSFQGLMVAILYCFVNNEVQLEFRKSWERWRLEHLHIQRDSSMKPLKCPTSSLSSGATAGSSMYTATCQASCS
human GLP-1R, sequence (P43220 24-463): as above

Consider `CC[C@H](C)[C@H](NC(=O)[C@H](CC(C)C)NC(=O)[C@H](Cc1ccc(O)cc1)NC(=O)[C@H](CCC(=O)O)NC(=O)[C@@H](NC(=O)[C@H](Cc1ccccc1)NC(=O)[C@H](C)NC(=O)C(C)(C)NC(=O)[C@H](CCC(N)=O)NC(=O)[C@H](C)NC(=O)[C@H](CCCCNC(=O)COCCOCCNC(=O)COCCOCCNC(=O)CC[C@H](NC(=O)CCCCCCCCCCCCCCCCCCC(=O)O)C(=O)O)NC(=O)[C@H](CO)NC(=O)[C@H](CC(=O)O)NC(=O)[C@H](CC(C)C)NC(=O)[C@H](CC(C)C)NC(=O)[C@@H](NC(=O)[C@H](CO)NC(=O)[C@H](Cc1ccc(O)cc1)NC(=O)[C@H](CC(=O)O)NC(=O)[C@H](CO)NC(=O)[C@@H](NC(=O)[C@H](Cc1ccccc1)NC(=O)[C@@H](NC(=O)CNC(=O)[C@H](CCC(=O)O)NC(=O)C(C)(C)NC(=O)[C@@H](N)Cc1ccc(O)cc1)[C@@H](C)O)[C@@H](C)O)[C@@H](C)CC)[C@@H](C)CC)C(=O)N[C@@H](CCC(=O)O)C(=O)NCC(=O)NCC(=O)N1CCC[C@H]1C(=O)N[C@@H](CO)C(=O)N[C@@H](CO)C(=O)NCC(=O)N[C@@H](C)C(=O)N1CCC[C@H]1C(=O)N1CCC[C@H]1C(=O)N1CCC[C@H]1C(=O)N[C@@H](CO)C(N)=O` [Example 9] (H-Y[Aib]EGTFTSDYSILLDSK([AEEA-AEEA-γGlu-C20 diacid])AQ[Aib]AFIEYLIEGGPSSGAPPPS-NH2), for which the values for the Ki in experiment [1], in experiment [2] and in experiment [5] were 375 nM, 0.127 nM and 14.9 nM, respectively. The concentration for a half-maximal effect (EC50) in experiment [3] came out at 0.194 nM; in experiment [4], 0.21 nM.
As for `CC[C@H](C)[C@H](NC(=O)[C@H](CO)NC(=O)[C@H](CC(=O)O)NC(=O)[C@H](CC(C)C)NC(=O)[C@H](CC(C)C)NC(=O)[C@@H](NC(=O)[C@H](CO)NC(=O)[C@H](Cc1ccc(O)cc1)NC(=O)[C@H](CC(=O)O)NC(=O)[C@H](CO)NC(=O)[C@@H](NC(=O)[C@H](Cc1ccccc1)NC(=O)[C@@H](NC(=O)CNC(=O)[C@H](CCC(=O)O)NC(=O)C(C)(C)NC(=O)[C@@H](N)Cc1ccc(O)cc1)[C@@H](C)O)[C@@H](C)O)[C@@H](C)CC)C(=O)N[C@@H](C)C(=O)N[C@@H](CCC(N)=O)C(=O)NC(C)(C)C(=O)N[C@@H](C)C(=O)N[C@@H](Cc1ccccc1)C(=O)N[C@H](C(=O)N[C@@H](CCCCNC(=O)COCCOCCNC(=O)COCCOCCNC(=O)CC[C@H](NC(=O)CCCCCCCCCCCCCCCCCCC(=O)O)C(=O)O)C(=O)N[C@@H](Cc1ccc(O)cc1)C(=O)N[C@@H](CC(C)C)C(=O)N[C@@H](CC(C)C)C(=O)N[C@@H](C)C(=O)NC(C)(C)C(=O)NCC(=O)N1CCC[C@H]1C(=O)N[C@@H](CO)C(=O)N[C@@H](CO)C(=O)NCC(=O)N[C@@H](C)C(=O)N1CCC[C@H]1C(=O)N1CCC[C@H]1C(=O)N1CCC[C@H]1C(=O)N[C@@H](CO)C(N)=O)[C@@H](C)CC` [Example 10] (H-Y[Aib]EGTFTSDYSILLDSIAQ[Aib]AFIK([AEEA-AEEA-γGlu-C20 diacid])YLLA[Aib]GPSSGAPPPS-NH2), the Ki in experiment [1] was 226 nM; in experiment [2] it was 0.109 nM; in experiment [5], 9.33 nM. The EC50 was found to be 7.64 nM in experiment [3] and 1.28 nM in experiment [4].
The like results for `CC[C@H](C)[C@H](NC(=O)[C@H](CO)NC(=O)[C@H](CC(=O)O)NC(=O)[C@H](CC(C)C)NC(=O)[C@H](CC(C)C)NC(=O)[C@@H](NC(=O)[C@H](CO)NC(=O)[C@H](Cc1ccc(O)cc1)NC(=O)[C@H](CC(=O)O)NC(=O)[C@H](CO)NC(=O)[C@@H](NC(=O)[C@H](Cc1ccccc1)NC(=O)[C@@H](NC(=O)CNC(=O)[C@H](CCC(=O)O)NC(=O)C(C)(C)NC(=O)[C@@H](N)Cc1ccc(O)cc1)[C@@H](C)O)[C@@H](C)O)[C@@H](C)CC)C(=O)N[C@@H](C)C(=O)N[C@@H](CCC(N)=O)C(=O)NC(C)(C)C(=O)N[C@@H](C)C(=O)N[C@@H](Cc1ccccc1)C(=O)N[C@H](C(=O)N[C@@H](CCC(=O)O)C(=O)N[C@@H](Cc1ccc(O)cc1)C(=O)N[C@@H](CC(C)C)C(=O)N[C@@H](CC(C)C)C(=O)N[C@@H](CCCCNC(=O)COCCOCCNC(=O)COCCOCCNC(=O)CC[C@H](NC(=O)CCCCCCCCCCCCCCCCCCC(=O)O)C(=O)O)C(=O)NC(C)(C)C(=O)NCC(=O)N1CCC[C@H]1C(=O)N[C@@H](CO)C(=O)N[C@@H](CO)C(=O)NCC(=O)N[C@@H](C)C(=O)N1CCC[C@H]1C(=O)N1CCC[C@H]1C(=O)N1CCC[C@H]1C(=O)N[C@@H](CO)C(N)=O)[C@@H](C)CC` [Example 11] (H-Y[Aib]EGTFTSDYSILLDSIAQ[Aib]AFIEYLLK([AEEA-AEEA-γGlu-C20 diacid])[Aib]GPSSGAPPPS-NH2) were, in that order, 174 nM, 0.226 nM, 15.7 nM, 6.89 nM and 0.486 nM.
The like results for `CC[C@H](C)[C@H](NC(=O)[C@H](CCCCN)NC(=O)[C@H](CC(=O)O)NC(=O)[C@H](CC(C)C)NC(=O)[C@H](CC(C)C)NC(=O)[C@@H](NC(=O)[C@H](CO)NC(=O)[C@H](Cc1ccc(O)cc1)NC(=O)[C@H](CC(=O)O)NC(=O)[C@H](CO)NC(=O)[C@@H](NC(=O)[C@H](Cc1ccccc1)NC(=O)[C@@H](NC(=O)CNC(=O)[C@H](CCC(=O)O)NC(=O)C(C)(C)NC(=O)[C@@H](N)Cc1ccc(O)cc1)[C@@H](C)O)[C@@H](C)O)[C@@H](C)CC)C(=O)N[C@@H](C)C(=O)N[C@@H](CCC(N)=O)C(=O)N[C@@H](CCCCNC(=O)COCCOCCNC(=O)COCCOCCNC(=O)CC[C@H](NC(=O)CCCCCCCCCCCCCCCCCCC(=O)O)C(=O)O)C(=O)N[C@@H](C)C(=O)N[C@@H](Cc1ccccc1)C(=O)N[C@H](C(=O)N[C@@H](CCC(=O)O)C(=O)N[C@@H](Cc1ccc(O)cc1)C(=O)N[C@@H](CC(C)C)C(=O)N[C@H](C(=O)N[C@@H](CCC(=O)O)C(=O)NCC(=O)NCC(=O)N1CCC[C@H]1C(=O)N[C@@H](CO)C(=O)N[C@@H](CO)C(=O)NCC(=O)N[C@@H](C)C(=O)N1CCC[C@H]1C(=O)N1CCC[C@H]1C(=O)N1CCC[C@H]1C(=O)N[C@@H](CO)C(N)=O)[C@@H](C)CC)[C@@H](C)CC` [Example 12] (H-Y[Aib]EGTFTSDYSILLDKIAQK([AEEA-AEEA-γGlu-C20 diacid])AFIEYLIEGGPSSGAPPPS-NH2; N-terminus assumed) were, in that order, 684 nM, 0.167 nM, 12.9 nM, 1.15 nM and 0.3 nM.

In general, Ki refers to the equilibrium dissociation constant of an inhibitor or competing ligand from its target. One may read the EC50 as the concentration giving half of the maximal effect.

(Values after patent US12252524B2, “GIP/GLP1 co-agonist compounds” (Eli Lilly and Company, priority 2018, dated 2025).)
